“Also recorded” adds a separate entry of the source.

Broadly, the cell viability is the share of living cells, or the viability signal relative to a control.

The test system of series [1] is 143B human osteosarcoma cells. The experiment in a line: Cell counts of drug combination administration (Trypan Blue), cell viability. Conditions: 143B cells. Here is the method: (§1) (1) Cells were plated in a 10 cm culture plate to grow a density of about 90%. The medium was removed, and the adherent cells were washed once with a PBS buffer. 1 mL of trypsin was added, and immediately discarded after mixing well. The cells were placed in the incubator and digested for about 5 min, and then about 10 ml of fresh medium was added. 10 μL was taken for counting.
(§2) (2) 10 μL of the well-mixed cells were taken and mixed into 10 μL of Trypan Blue solution, and counted.
(§3) (3) After counting, the cells were diluted to 1×10^5 cells/ml. The diluted cells were mixed well, and plated into a 24-well plate with 500 μL per well, i.e., about 50,000 cells per well.
(§4) (4) The cells plated in the 24-well plate were cultured for about 24h, and then drugs were added. […]
(§5) (5) After 24h of dosing, the medium was discarded. About 150 μL of trypsin was added and then discarded. The cells were digested for 5 min;
(§6) (6) After digestion, equivalent amounts of PBS were added into each well and mixed uniformly. Then, 10 μL/well of Trypan Blue solution was added and mixed uniformly. 10 μL of the well-mixed solution was taken and counted. In accordance with “Cell viability=Cell Count of Test Group/Cell Count of Control Group×100%”, the cell viability of various groups was calculated.
(§7) The coefficient of drug in interaction (CDI) was used to evaluate the nature of the interaction between the two drugs. The test groups were divided into the control group, the group of A drug, the group of B drug and the group of AB in combination, and used for detecting the cell viability in A, B and AB groups, respectively.

Series [2] concerns HOS human osteosarcoma cells. Described as above. Here is the method:
as §1, §2, §3, §4, §5, §6, §7

For the next series, the system named is HEK293 cells. Put plainly: Cell viability compared with HEK293 cells (specificity). In kind it is cell-based. To be noted: in combination with ascorbic acid. Here is the method:
HEK293 cells, HOS human osteosarcoma cells, and 143B human osteosarcoma cells were subcultured in an incubator at 37° C., 5% CO2 using a RPMI-1640 medium containing 10% fetal bovine serum (FBS).
10 μL was taken for counting.
(5) After 24h of dosing, the medium was discarded. […] The cells were digested for 5 min;

[3] abbreviates: 0.1 μM in combination with 0.5 mM sodium ascorbate.

Regarding `Cn1ncnc2c(=O)n(C)c(=O)nc1-2` [PKF118-310], the CDI value in series [1] (setting [3]) turned out to be 0.04. Moreover, the cell viability was 2% in series [1] (setting [3]); 91% in series [1] (single-drug 0.1 μM, 24h); 10% in series [2] (setting [3]); 94% in series [2] (single-drug 0.1 μM, 24h). Further, the “CDI value (coefficient of drug interaction)” value in series [2] (setting [3]) is listed as 0.12. Besides, the “specificity of inhibition of tumor cell viability as compared with the HEK293 cells” value in the series on HEK293 cells was “can specifically inhibit the cell viability of the 143B cells and the HOS cells; also recorded: can specifically inhibit the activity of the HCT116 cells and the MC38 cells”.

(Values after patent US20230181524A1, “PHARMACEUTICAL COMBINATION AND USE THEREOF” (NATURAL MEDICINE INSTITUTE OF ZHEJIANG YANGSHENGTANG CO., …, priority 2020, published 2023).)
